According to ChEMBL document CHEMBL1201862, “PubChem BioAssay data set” (2004):
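Tested at 5 concentrations; 48 h exposure; 96-well plates; endpoints linearly interpolated, else capped at highest concentration. The concentration for 50% growth inhibition is given as GI50.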 Calls of active or inactive are those of the source. Cut-off read from the data, not from the text of the source: active = GI50 up to about 1.1 µM and inactive = higher.

What was measured:
Assay in all cases: NCI tumour cell line growth inhibition, 48 h
[1] = test system: NCI-H460
[2] = test system: KM12
[3] = test system: HT-29
[4] = test system: OVCAR-8
[5] = test system: K562
[6] = test system: UO-31
[7] = test system: SK-MEL-28
[8] = test system: COLO 205
[9] = test system: UACC-62
[10] = test system: A498
[11] = test system: OVCAR-5
[12] = test system: NCI-H23
[13] = test system: RXF 393
[14] = test system: SF-539
[15] = test system: SW-620
[16] = test system: SK-MEL-5

Measured: GI50

O=c1c(O)cccn1C1OC(CO)C(O)C1O (centres undefined)
inactive: [1] > 100 µM | [2] > 100 µM | [3] > 100 µM | [4] > 100 µM | [5] > 100 µM | [6] > 100 µM | [7] > 100 µM | [8] > 100 µM | [9] > 100 µM | [10] > 100 µM | [11] > 100 µM | [12] > 100 µM | [13] > 100 µM

N#C/C(c1nc2ccccc2[nH]1)=c1\s/c(=C/c2ccccc2)c(=O)n1-c1ccccc1
inactive: [1] 65.2 µM | [2] > 100 µM | [14] > 100 µM | [15] > 100 µM | [4] > 100 µM | [5] > 100 µM | [6] > 100 µM | [7] > 100 µM | [8] > 100 µM | [16] 81.8 µM | [9] > 100 µM | [10] 65.5 µM | [11] > 100 µM | [12] > 100 µM

CC1=C(C)C(=O)C2=C(OCCCO2)C1=O
inactive: [1] > 10 µM | [2] > 10 µM | [3] 20.8 µM | [14] > 10 µM | [15] 17 µM | [4] 18.7 µM | [5] 21.6 µM | [6] 16.5 µM | [7] 35.6 µM | [8] 34.2 µM | [9] 18.1 µM | [10] > 10 µM | [11] > 10 µM | [12] > 10 µM | [13] > 10 µM

C[Si](C)(C)OC1(C#N)C2C3CC4C2C(=O)C2C4C3C21 (centres undefined)
inactive: [1] > 100 µM | [2] > 100 µM | [14] > 100 µM | [15] > 100 µM | [4] > 100 µM | [5] > 100 µM | [6] > 100 µM | [7] > 100 µM | [8] > 100 µM | [16] > 100 µM | [9] > 100 µM | [10] > 100 µM | [13] > 100 µM

Cn1cnc([N+](=O)[O-])c1Sc1nccn1-c1ccccc1
inactive: [1] 41.4 µM | [2] > 100 µM | [3] 61.1 µM | [14] 68.2 µM | [15] 42.9 µM | [4] 43.1 µM | [5] 52.4 µM | [6] 22.3 µM | [7] 37.8 µM | [8] 33.9 µM | [16] 69.2 µM | [9] 35.2 µM | [10] > 100 µM | [11] > 100 µM | [12] 29.9 µM

COc1ccc(NC(=O)C(=O)C2NC(=S)NC2=O)c(OC)c1 (centres undefined)
inactive: [1] > 100 µM | [2] > 100 µM | [3] > 100 µM | [14] > 100 µM | [15] > 100 µM | [4] > 100 µM | [5] > 100 µM | [6] > 100 µM | [7] > 100 µM | [8] > 100 µM | [9] > 100 µM | [10] > 100 µM | [12] > 100 µM | [13] > 100 µM

O=[N+]([O-])c1ccc(OCCNc2cccc3ccccc23)cc1
inactive: [1] 77.6 µM | [2] > 100 µM | [3] 85.5 µM | [14] > 100 µM | [15] 57.1 µM | [4] 65.3 µM | [5] 18.6 µM | [6] 92.9 µM | [7] > 100 µM | [8] > 100 µM | [16] 30.5 µM | [9] > 100 µM | [10] > 100 µM | [11] > 100 µM | [12] 30.6 µM

N#C/N=C(\NCCc1c[nH]c2ccccc12)NCc1ccccc1
inactive: [1] 26.8 µM | [2] 36.4 µM | [3] 37.8 µM | [14] > 100 µM | [15] > 100 µM | [4] > 100 µM | [5] 42.8 µM | [6] 20.5 µM | [7] 80.7 µM | [8] 61 µM | [16] 24.4 µM | [9] 53.6 µM | [11] > 100 µM | [12] > 100 µM | [13] > 100 µM

CN(C)C(=S)/N=c1\ss/c(=N/c2ccccc2)n1C
inactive: [1] > 100 µM | [2] > 100 µM | [3] > 100 µM | [14] 22.7 µM | [15] > 100 µM | [4] 73.6 µM | [5] > 100 µM | [6] > 100 µM | [7] 64.3 µM | [9] > 100 µM | [10] 28.9 µM | [11] > 100 µM | [12] > 100 µM | [13] 28.2 µM

C[C@]12CCCC(=O)C1C[C@H](C(=O)O)CC2 (some centres undefined)
inactive: [1] > 100 µM | [2] > 100 µM | [3] > 100 µM | [14] > 100 µM | [15] > 100 µM | [4] > 100 µM | [5] > 100 µM | [6] > 100 µM | [7] > 100 µM | [8] > 100 µM | [9] > 100 µM | [10] > 100 µM | [11] > 100 µM | [12] > 100 µM

CCOc1ccc(/C=C(\Cl)c2ccc(OC)cc2)cc1
inactive: [3] > 100 µM | [14] > 100 µM | [15] > 100 µM | [4] > 100 µM | [5] > 100 µM | [6] > 100 µM | [7] > 100 µM | [8] > 100 µM | [16] > 100 µM | [9] > 100 µM | [10] 25.2 µM | [12] > 100 µM | [13] > 100 µM

COc1cc(Br)c(CC2=NCCc3cc(OC)c(OC)cc32)cc1OC
inactive: [1] 2.35 µM | [2] 20.9 µM | [3] 2.16 µM | [14] 11.7 µM | [15] 18 µM | [4] 48.1 µM | [5] 5.4 µM | [6] 11.3 µM | [7] 19.7 µM | [8] 14.1 µM | [16] 16.7 µM | [9] 7.13 µM | [10] 14.9 µM | [11] 3.88 µM | [12] 9.71 µM

COc1ccc(-c2cc(-c3cc(C)ccc3O)nc(O)n2)cc1
inactive: [1] > 100 µM | [2] > 100 µM | [3] > 100 µM | [14] 30.1 µM | [15] > 100 µM | [4] 74.8 µM | [5] > 100 µM | [6] 76.6 µM | [7] > 100 µM | [8] > 100 µM | [9] > 100 µM | [10] 74.6 µM | [12] > 100 µM | [13] 32.6 µM

O=C(CSc1nnc(Cc2ccccc2)o1)Nc1ccccc1Cl
inactive: [1] > 100 µM | [2] > 100 µM | [3] > 100 µM | [14] > 100 µM | [15] > 100 µM | [4] > 100 µM | [5] > 100 µM | [6] > 100 µM | [7] > 100 µM | [8] > 100 µM | [16] > 100 µM | [9] > 100 µM | [10] > 100 µM | [11] > 100 µM | [12] > 100 µM
